Reference: US20050245399A1, “Pyrazole derivatives as herbicidal compositions containing them” (ISHIHARA SANGYO KAISHA, LTD., priority 2004, published 2005)

Experiments:
Type in all cases: in vivo
[1] = test system: corn (Zea mays L.), ZEAMX; assay: Test Example 2 post-emergence (foliage treatment) herbicidal activity, ZEAMX; conditions: 63 g a.i./ha
Summary of the method: (§1)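 Foliar spray of formulated compound (500 L/ha dilution water, 0.1% v/v spreader) onto young potted plants at defined leaf stages. Scored 0-100% by visual inspection 20-23 d post-spray.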

[2] = test system: barnyardgrass (Echinochloa crus-galli L.): ECHCG; assay: Test Example 1 pre-emergence herbicidal activity, ECHCG; conditions: visually observed 20th to 23rd day after application
Summary of the method: (§2)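 Seeds sown in upland field soil in pots; one day later compound, formulated as wettable powder or emulsifiable concentrate and diluted with water at 500 L/ha, sprayed pre-emergence at a predetermined active-ingredient rate. Growth control scored visually 20–23 days after application, 0 (untreated-like) to 100 (complete kill) %.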

[3] = test system: green foxtail (Setaria viridis L.): SETVI; assay: Test Example 1 pre-emergence herbicidal activity, SETVI; conditions: visually observed 20th to 23rd day after application
Summary of the method: as §2

[4] = test system: redroot pigweed (Amaranthus retroflexus L.), AMARE; assay: Test Example 2 post-emergence (foliage treatment) herbicidal activity, AMARE; conditions: 63 g a.i./ha
Excerpt: Upland field soil was put into a 1/170,000 ha pot, and seeds of various plants were sown. Then, when the plants reached predetermined leaf stages {1. barnyardgrass (Echinochloa crus-galli L.), ECHCG: 1.1-2.1 leaf stage, 2. crabgrass (Digitaria sanguinalis L.), DIGSA: 1.0-2.0 leaf stage, 3. green foxtail (Setaria viridis L.), SETVI: 1.0-2.2 leaf stage, 4. redroot pigweed (Amaranthus retroflexus L.), AMARE: 0.1-1.5 leaf stage, 5. prickly sida (Sida spinosa L.), SIDSP: 0.1-0.6 leaf stage, 6. velvetleaf (Abutilon theophrasti), ABUTH: 0.1-0.6 leaf stage, 7. common cocklebur (Xanthium strumarium L.), XANST: 0.1 leaf stage, 8. rice (Oryza sativa L.), ORYSA; 1.0-2 leaf stage, 9. wheat (Triticum aestivum L.), TRZAX: 2.3-3.5 leaf stage, 10. corn (Zea mays L.), ZEAMXN 2.1-2.6 leaf stage, 11. soybean (Glycine max Merr.), GLXMA: primary leaf stage}, a wettable powder or emulsifiable concentrate having the compound of the present invention formulated in accordance with a usual formulation method, was weighed so that the active ingredient would be a predetermined amount, and diluted with water in an amount of 500 L/ha. To the diluted solution, 0.1% (v/v) of an agricultural spreader was added. The herbicide adjusted was applied by a small size sprayer for foliage treatment. On the 20th to 23rd day after the application of the herbicide, the growth of the respective plants was visually observed, and the herbicidal effects were evaluated by growth controlling degrees (%) ranging from 0 (equivalent to the untreated control) to 100 (complete kill), whereby the results shown in Table 5, were obtained. Compound Nos. in Table 5 correspond to Compound Nos. in Table 1 and 2 given hereinbefore.

[5] = test system: prickly sida (Sida spinosa L.), SIDSP; assay: Test Example 2 post-emergence (foliage treatment) herbicidal activity, SIDSP; conditions: 63 g a.i./ha
Summary of the method: as §1

[6] = test system: crabgrass (Digitaria sanguinalis L.): DIGSA; assay: Test Example 1 pre-emergence herbicidal activity, DIGSA; conditions: visually observed 20th to 23rd day after application
Summary of the method: as §2

[7] = test system: green foxtail (Setaria viridis L.), SETVI; assay: Test Example 2 post-emergence (foliage treatment) herbicidal activity, SETVI; conditions: 63 g a.i./ha
Summary of the method: as §1

[8] = test system: rice (Oryza sativa L.): ORYSA; assay: Test Example 1 pre-emergence herbicidal activity, ORYSA; conditions: visually observed 20th to 23rd day after application
Summary of the method: as §2

[9] = test system: velvetleaf (Abutilon theophrasti), ABUTH; assay: Test Example 2 post-emergence (foliage treatment) herbicidal activity, ABUTH; conditions: 63 g a.i./ha
Summary of the method: as §1

[10] = test system: corn (Zea mays L.): ZEAMX; assay: Test Example 1 pre-emergence herbicidal activity, ZEAMX; conditions: visually observed 20th to 23rd day after application
Summary of the method: as §2

[11] = test system: redroot pigweed (Amaranthus retroflexus L.): AMARE; assay: Test Example 1 pre-emergence herbicidal activity, AMARE; conditions: visually observed 20th to 23rd day after application
Summary of the method: as §2

[12] = test system: prickly sida (Sida spinosa L.): SEDSP; assay: Test Example 1 pre-emergence herbicidal activity, SIDSP; conditions: visually observed 20th to 23rd day after application
Summary of the method: as §2

[13] = test system: wheat (Triticum aestivum L.), TRZAX; assay: Test Example 2 post-emergence (foliage treatment) herbicidal activity, TRZAX; conditions: 63 g a.i./ha
Summary of the method: as §1

[14] = test system: wheat (Triticum aestivum L.): TRZAX; assay: Test Example 1 pre-emergence herbicidal activity, TRZAX; conditions: visually observed 20th to 23rd day after application
Summary of the method: as §2

[15] = test system: velvetleaf (Abutilon theophrasti): ABUTH; assay: Test Example 1 pre-emergence herbicidal activity, ABUTH; conditions: visually observed 20th to 23rd day after application
Summary of the method: as §2

[16] = test system: soybean (Glycine max Merr.), GLXMA; assay: Test Example 2 post-emergence (foliage treatment) herbicidal activity, GLXMA; conditions: 63 g a.i./ha
Summary of the method: as §1

[17] = test system: barnyardgrass (Echinochloa crus-galli L.), ECHCG; assay: Test Example 2 post-emergence (foliage treatment) herbicidal activity, ECHCG; conditions: 63 g a.i./ha
Summary of the method: (§3)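 Pot-grown plants in upland soil were sprayed over the foliage at ECHCG 1.1-2.1, DIGSA 1.0-2.0, AMARE 0.1-1.5 and ORYSA 1.0-2 leaf stage. Wettable powder or emulsifiable concentrate was diluted in water at 500 L/ha plus 0.1% (v/v) spreader. Growth control was scored visually 20-23 days later, 0 (untreated) to 100% (complete kill).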

[18] = test system: rice (Oryza sativa L.), ORYSA; assay: Test Example 2 post-emergence (foliage treatment) herbicidal activity, ORYSA; conditions: 63 g a.i./ha
Summary of the method: as §3

[19] = test system: crabgrass (Digitaria sanguinalis L.), DIGSA; assay: Test Example 2 post-emergence (foliage treatment) herbicidal activity, DIGSA; conditions: 63 g a.i./ha
Summary of the method: as §3

[20] = test system: soybean (Glycine max Merr.): GLXMA; assay: Test Example 1 pre-emergence herbicidal activity, GLXMA; conditions: visually observed 20th to 23rd day after application
Summary of the method: as §2

SMILES	growth controlling degree, ZEAMX [1]	Pre-emergence Herbicidal Activity ECHCG (growth controlling degree) ([2]; Rate 63 g a.i./ha)	Pre-emergence Herbicidal Activity SETVI (growth controlling degree) ([3]; Rate 63 g a.i./ha)	growth controlling degree, AMARE [4]	growth controlling degree, SIDSP [5]	Pre-emergence Herbicidal Activity DIGSP (growth controlling degree) ([6]; Rate 63 g a.i./ha)	growth controlling degree, SETVI [7]	Pre-emergence Herbicidal Activity ORYSA (growth controlling degree) ([8]; Rate 63 g a.i./ha)	growth controlling degree, ABUTH [9]	Pre-emergence Herbicidal Activity ZEAMX (growth controlling degree) ([10]; Rate 63 g a.i./ha)	Pre-emergence Herbicidal Activity AMARE (growth controlling degree) ([11]; Rate 63 g a.i./ha)	Pre-emergence Herbicidal Activity SIDSP (growth controlling degree) ([12]; Rate 63 g a.i./ha)	growth controlling degree, TRZAX [13]	Pre-emergence Herbicidal Activity TRZAX (growth controlling degree) ([14]; Rate 63 g a.i./ha)	Pre-emergence Herbicidal Activity ABUTH (growth controlling degree) ([15]; Rate 63 g a.i./ha)	growth controlling degree, GLXMA [16]	growth controlling degree, ECHCO [17]	growth controlling degree, ORYSA [18]	growth controlling degree, DIGSP [19]	Pre-emergence Herbicidal Activity GLXMA (growth controlling degree) ([20]; Rate 63 g a.i./ha)	other results
COc1c(Cl)cc(F)c(-c2nn(C)c(OC(F)F)c2Cl)c1NC(=O)OC(C)C [Compound 1-75]	50%	70%	100%	100%	100%	100%	100%	30%	100%	10%	100%	60%	50%	30%	100%	60%	100%	80%	50%	0%	
COc1c(Cl)cc(F)c(-c2nn(C)c(OC(F)F)c2Cl)c1NC(=O)C=Cc1cccc(C)c1 [Compound 1-254]	30%	60%	50%	100%	100%	60%	95%	20%	100%	0%	100%	60%	30%	0%	50%	70%	80%	90%	60%	0%	
COc1c(Cl)cc(F)c(-c2nn(C)c(OC(F)F)c2Cl)c1NC(=O)C(C)(C)Oc1ccccc1 [Compound 1-38]	10%	0%	20%	100%	100%	10%	50%	0%	100%	0%	20%	0%	10%	0%	0%	30%	50%	40%	20%	0%	
CCOC(=O)C(C)N(C=O)c1c(OC)c(Cl)cc(F)c1-c1nn(C)c(OC(F)F)c1Cl (stereo not drawn) [Compound 1-42]	0%			100%	70%		50%		95%				20%			10%	30%	20%	30%		Pre-emergence Herbicidal Activity ECHCG (growth controlling degree) ([2]; Rate 125 g a.i./ha): 0%; Pre-emergence Herbicidal Activity SETVI (growth controlling degree) ([3]; Rate 125 g a.i./ha): 0%; Pre-emergence Herbicidal Activity DIGSP (growth controlling degree) ([6]; Rate 125 g a.i./ha): 0%; Pre-emergence Herbicidal Activity ORYSA (growth controlling degree) ([8]; Rate 125 g a.i./ha): 0%; Pre-emergence Herbicidal Activity ZEAMX (growth controlling degree) ([10]; Rate 125 g a.i./ha): 0%; Pre-emergence Herbicidal Activity AMARE (growth controlling degree) ([11]; Rate 125 g a.i./ha): 0%; Pre-emergence Herbicidal Activity SIDSP (growth controlling degree) ([12]; Rate 125 g a.i./ha): 0%; Pre-emergence Herbicidal Activity TRZAX (growth controlling degree) ([14]; Rate 125 g a.i./ha): 0%; Pre-emergence Herbicidal Activity ABUTH (growth controlling degree) ([15]; Rate 125 g a.i./ha): 0%; Pre-emergence Herbicidal Activity GLXMA (growth controlling degree) ([20]; Rate 125 g a.i./ha): 0%
COc1c(Cl)cc(F)c(-c2nn(C)c(OC(F)F)c2Cl)c1NC(=O)C=Cc1ccc(C)cc1 [Compound 1-255]	20%	0%	10%	100%	100%	10%	50%	0%	100%	0%	70%	0%	10%	0%	0%	50%	50%	40%	30%	0%	
COc1c(Cl)cc(F)c(-c2nn(C)c(OC(F)F)c2Cl)c1NC(=O)C(C)=Cc1ccccc1 [Compound 1-251]	10%	0%	20%	100%	95%	20%	60%	10%	95%	0%	100%	20%	20%	0%	30%	40%	60%	10%	70%	0%	
